{
  "source": "patent US10392373B2",
  "about": "“Oxazole derivatives that inhibit Syk” (AB Science, priority 2015, dated 2019)",
  "target": "T1, SYK kinase (Homo sapiens, UniProt P43405)",
  "T1 construct": "SYK kinase was purified as a full length protein in a baculovirus system near homogeneity; made in house",
  "assay": "In vitro Syk inhibition assay (Kinase TK HTRF, Cisbio)",
  "type": "biochemical",
  "details": "full length SYK purified from a baculovirus system; ATP at least twice the Km; room temperature; average of triplicate; read-out: IC50: Concentration inhibiting 50% of protein kinase",
  "experimental": "Protocol Inhibition Assays.\nSYK kinase was purified as a full length protein in a baculovirus system near homogeneity. All kinase assays were performed with the Kinase TK (tyrosine kinase) HTRF (Homogeneous Time Resolved Fluorescence) assay developed by Cisbio international. These assays were carried out at room temperature in 96-wells half-area white plates in a final volume of 25 μl of kinase buffer (10 mM MgCl2; 2 mM MnCl2; 50 mM Sodium-HEPES pH 7.8; BRIJ-35 0.01%, 1 μM substrate) containing ATP at a concentration of at least twice the Km for each enzyme and an appropriate amount of recombinant enzyme to ensure a linear reaction rate. Reactions were initiated upon introduction of the enzyme and terminated with the addition of one reaction volume (25 μl) of HTRF detection buffer. Plates were incubated for one hour at room temperature and the time resolved Fluorescence resonance energy transfer signal was measured in a Pherastar FS microplate reader (BMG Labtech). All data are the average of triplicate results with a standard deviation <10%.",
  "data": [
    {"smiles": "CC1(C)C(=O)NCCN1c1ncc(-c2cccc(Nc3nccc(C4CC4)n3)c2)o1", "note": "[Compound 042, 4-{5-[3-(4-Cyclopropyl-pyrimidin-2-ylamino)-phenyl]-oxazol-2-yl}-3,3-dimethyl-piperazin-2-one]", "values": [
      {"measurement": "IC50", "value": "≤ 100", "unit": "nM"}
    ]},
    {"smiles": "CC(C)c1ccnc(Nc2cccc(-c3cnc(N4CCNC(=O)C4C(C)C)o3)c2)n1", "note": "(stereo not shown) [Compound 036, 3-Isopropyl-4-{5-[3-(4-isopropyl-pyrimidin-2-ylamino)-phenyl]-oxazol-2-yl}-piperazin-2-one]", "values": [
      {"measurement": "IC50", "value": "≤ 100", "unit": "nM"}
    ]},
    {"smiles": "CC(C)C1C(=O)NCCN1c1ncc(-c2cccc(Nc3nccc(N4CCOCC4)n3)c2)o1", "note": "(stereo not shown) [Compound 033, 3-Isopropyl-4-{5-[3-(4-morpholin-4-yl-pyrimidin-2-ylamino)-phenyl]-oxazol-2-yl}-piperazin-2-one]", "values": [
      {"measurement": "IC50", "value": "1000 to 10000", "unit": "nM"}
    ]},
    {"smiles": "Cc1ccnc(Nc2cccc(-c3cnc(N4CCNC(=O)[C@H]4C(C)C)o3)c2)n1", "note": "[Compound 040, (R)-3-Isopropyl-4-{5-[3-(4-methyl-pyrimidin-2-ylamino)-phenyl]-oxazol-2-yl}-piperazin-2-one]", "values": [
      {"measurement": "IC50", "value": "≤ 100", "unit": "nM"}
    ]},
    {"smiles": "CC1(C)C(=O)NCCN1c1ncc(-c2cccc(Nc3nccc(N4CCOCC4)n3)c2)o1", "note": "[Compound 030, 3,3-Dimethyl-4-{5-[3-(4-morpholin-4-yl-pyrimidin-2-ylamino)-phenyl]-oxazol-2-yl}-piperazin-2-one]", "values": [
      {"measurement": "IC50", "value": "100 to 1000", "unit": "nM"}
    ]},
    {"smiles": "COc1ccnc(Nc2cccc(-c3cnc(N4CCNC(=O)C4(C)C)o3)c2)n1", "note": "[Compound 026, 4-{5-[3-(4-Methoxy-pyrimidin-2-ylamino)-phenyl]-oxazol-2-yl}-3,3-dimethyl-piperazin-2-one]", "values": [
      {"measurement": "IC50", "value": "≤ 100", "unit": "nM"}
    ]},
    {"smiles": "CC1C(=O)NCCN1c1ncc(-c2cccc(Nc3nccc(C(F)(F)F)n3)c2)o1", "note": "(stereo not shown) [Compound 009, 3-Methyl-4-{5-[3-((4-trifluoromethyl)-pyrimidin-2-ylamino)-phenyl]-oxazol-2-yl}-piperazin-2-one]", "values": [
      {"measurement": "IC50", "value": "≤ 100", "unit": "nM"}
    ]},
    {"smiles": "Cc1ccnc(Nc2cc(CN3CCOCC3)cc(-c3cnc(N4CCNC(=O)C4(C)C)o3)c2)n1", "note": "[Compound 005, 3,3-Dimethyl-4-{5-[3-(4-methyl-pyrimidin-2-ylamino)-5-morpholin-4-ylmethyl-phenyl]-oxazol-2-yl}-piperazin-2-one]", "values": [
      {"measurement": "IC50", "value": "≤ 100", "unit": "nM"}
    ]},
    {"smiles": "Cc1cnc(Nc2cccc(-c3cnc(N4CCNC(=O)C4(C)C)o3)c2)nc1C", "note": "[Compound 022, 4-{5-[3-(4,5-Dimethyl-pyrimidin-2-ylamino)-phenyl]-oxazol-2-yl}-3,3-dimethyl-piperazin-2-one]", "values": [
      {"measurement": "IC50", "value": "1000 to 10000", "unit": "nM"}
    ]},
    {"smiles": "CCC1C(=O)NCCN1c1ncc(-c2cccc(Nc3nccc(C(C)C)n3)c2)o1", "note": "(stereo not shown) [Compound 025, 3-Ethyl-4-{5-[3-(4-isopropyl-pyrimidin-2-ylamino)-phenyl]-oxazol-2-yl}-piperazin-2-one]", "values": [
      {"measurement": "IC50", "value": "≤ 100", "unit": "nM"}
    ]}
  ]
}
